Experimental data taken from patent publication US5972937A, “Heterocyclic compounds possessing 5HT2C receptor antagonist activity” (SmithKline Beecham p.l.c., priority 1995, dated 1999).

System: MCPP-induced Hypolocomotion
Assay: Reversal of MCPP-induced Hypolocomotion
Format: in vivo
Conditions: po, procedure of WO 94/04533, read-out: ID50 (the source's name)
Description: Reversal of MCPP-induced Hypolocomotion
Compounds were tested following the procedure outlined in WO 94/04533. The compound of example 8 has an ID50 of 10.0 mg/kg p.o.

Molecule `CSc1cc2c(cc1C(F)(F)F)N(C(=O)Nc1cccc(C(=O)NCCN(C)C)c1)CC2` [Example 8, 5-Methylthio-6-trifluoromethyl-1-[3-[(2-dimethylaminoethyl)carbamoyl]phenylcarbamoyl]indoline] has an ED50 of 10 mg/kg.
